From patent US9504676B2, “Molecules inhibiting a metabolic pathway involving the Syk protein tyrosine kinase and method for identifying said molecules” (CENTRE NATIONAL DE LA RECHERCHE SCIENTIFIQUE, priority 2008, dated 2016)
In brackets after ≈: the same amount, converted by molar mass.

Key:
RBL-2H3 cells = assay: cells; assay type: cell-based, rat; details: RBL-2H3 cells; for IC50: Rattus norvegicus, read-out: Degran. IC50: concentration inhibiting mast cell degranulation by 50%
Protocol: These 87 molecules were also tested in vitro to assess the ability thereof to inhibit RBL-2H3 cell degranulation (see table 1).
(§1) • 1) Chemical products and antibodies. A chemical bank of 3000 molecules (a varied subset) was acquired from ChemBridge, Inc. (San Diego, Calif.). Stocks of solutions of small molecules were prepared at a rate of 10 mM in DMSO (dimethylsulphoxide), except for C-13 (methyl 2-{5-[(3-benzyl-4-oxo-2-thioxo-1,3-thiazolidin-5-ylidene)methyl]-2-furyl}benzoate, ChemBridge ID No. 6197026) prepared in DMF (dimethylformamide). Unless specified otherwise, all the reagents were supplied by Sigma. Dinitrophenyl (DNP) hapten was acquired from Calbiochem. Sepharose GammaBind G and all the secondary antibodies were supplied by GE Health Amersham Biosciences. The anti-Syk, anti-Lyn, anti-Btk, anti-PLC-γ1, anti-PLC-γ2, anti-LAT, anti-SLP-76, anti-p38, anti-JNK, anti-Vav, anti-Akt1 and 9E10 antibodies conjugated with HRP were acquired from Santa Cruz Biotechnology. The anti-phospho-p44/42 MAP Kinase, anti-p44/42 MAP Kinase, anti-phospho-p38, anti-phospho-JNK, anti-phospho-Akt1 antibodies were acquired from Cell Signaling. The anti-phospho-LAT and anti-phospho-PLC-γ1 antibodies were supplied by Biosource and the anti-phospho-SLP-76 antibodies by BD Pharmingen. The 4G10 anti-phosphotyrosine monoclonal antibody was acquired from Upstate Biotechnology. • 2) ADA method: ELISA type high-speed molecule screening test, based on antibody displacement (WO 2005106481). The recombinant fusion protein GST:Syk 6-242^8 comprising the residues 6 to 242 of murine Syk tyrosine kinase protein illustrated in FIG. 8B (SEQ ID No. 4) was immobilised on an ELISA plate at a final concentration of 10 μg ml^−1. For the screening of the chemical molecule bank, the small molecules, diluted in PBS at a final concentration of 10 μM were added to the wells for one hour at ambient temperature, before adding the fragment scFv G4G11 at a final concentration of 100 nM for an additional hour. The binding of G4G11 with Syk was assessed by adding the 9E10 monoclonal antibody conjugated with HRP detecting the amino acid sequence EQKLISEEDLN of human c-myc protein located at the C-terminal end of the scFv fragment. To generate Syk mutants, targeted mutagenesis was used on GST:Syk 6-242 protein and the binding of G4G11 with the mutants was assessed in the presence of 5 μM of C-13. • 3) Cells, culture conditions and functional tests. Anti-DNP 2682-I mouse monoclonal antibody was used as the culture supernatant of hybridomas containing 1 μg/ml of IgE. Femoral bone marrow cells were sampled and cultured in Opti-MEM medium (Gibco) supplemented with 10% foetal calf serum and 4% X63 transfectant supernatant secreting murine IL-3. RBL-2H3 (ATCC) leukaemic rat basophil cells were maintained in a single-layer culture in RPMI 1640 medium supplemented with 10% foetal calf serum (Gibco). Measurements of β-hexosaminidase released by the RBL-2H3 cells were performed as described previously^7, except that, after 12-16 hours of incubation with anti-DNP IgE (0.5 μg/ml), the cells were incubated for 90 min at 37° C. in RPMI medium supplemented with the specified concentrations of C-13 or DMF (0.25%). The cells were stimulated for 45 min with DNP-BSA (50 ng ml^−1) or ionomycin (1.5 μM). The BMMC cells were incubated for one hour at 37° C. with anti-DNP IgE (100 ng/ml). They were then incubated with C-13 (3 μM) or DMF (0.3%) for 3 hours at 37° C., and stimulated with varied concentrations of DNP-BSA. The level of β-hexosaminidase released was measured 10 min later and the TNF-α titration was performed by means of a cytotoxicity test on L929 cells as described previously^10, 3 hours after stimulation. The results illustrated in FIG. 3 are representative of three independent experiments. • 4) Immunoprecipitations, in vitro kinase assays and immunodetection. […]

[1] = target: T1, murine Syk tyrosine kinase protein (GST:Syk 6-242) (Mus musculus, UniProt P48025); assay: ADA method: displacement of the binding of scFv G4G11 with Syk (ELISA); details: small molecules at 10 μM, scFv G4G11 100 nM; for inhibition at 10 µM: read-out: In vit. inhib.: mean inhibition % of the binding of scFv G4G11 with Syk in the ADA method
T1 construct: made in house
Text: The term “percentage of inhibition” of the binding of an antibody or antibody fragment with Syk protein, particularly refers to the ratio […], where A consists of the intensity of a signal proportional to the quantity of an antibody or antibody fragment bound with Syk protein in the absence of a molecule according to the invention and B the intensity of the same signal in the presence of a molecule according to the invention under the same conditions. […] This test may be performed for example according to the protocol described in example 3-2) hereinafter.
The inventors developed the ADA (Antigen Displacement Assay) method to identify small molecules capable of displacing the association with scFv G4G11 with Syk. […] To understand the mode of action of C-13, the inventors firstly identified the binding site of G4G11 using the SPOT method^16. An epitope located on the N-terminal SH2 domain of Syk, comprising amino acids 65-74 and 100% preserved in mouse, rat and human sequences, was identified.
The ADA method was then applied to each of these […] molecules to measure the ability thereof to inhibit the binding of scFv G4G11 with Syk.
as §1, with “(Gibco).” for “(Gibco). Measurements of β-hexosaminidase released by the RBL-2H3 cells were performed as described previously^7, except that, after 12-16 hours of incubation with anti-DNP IgE (0.5 μg/ml), the cells were incubated for 90 min at 37° C. in RPMI medium supplemented with the specified concentrations of C-13 or DMF (0.25%). The cells were stimulated for 45 min with DNP-BSA (50 ng ml^−1) or ionomycin (1.5 μM). The BMMC cells were incubated for one hour at 37° C. with anti-DNP IgE (100 ng/ml). They were then incubated with C-13 (3 μM) or DMF (0.3%) for 3 hours at 37° C., and stimulated with varied concentrations of DNP-BSA. The level of β-hexosaminidase released was measured 10 min later and the TNF-α titration was performed by means of a cytotoxicity test on L929 cells as described previously^10, 3 hours after stimulation. The results illustrated in FIG. 3 are representative of three independent experiments. • 4) Immunoprecipitations, in vitro kinase assays and immunodetection.”

Row | SMILES | IC50 (RBL-2H3 cells) [µg/mL] | inhibition at 10 µM [1] [%] | Degran. IC50: concentration inhibiting mast cell degranulation by 50% (RBL-2H3 cells) [µg/mL] | In vit. inhib.: mean inhibition % of the binding of scFv G4G11 with Syk in the ADA method [1] [%]
1 | CCN(CC)CCCN1C(=O)C(O)=C(C(=O)c2ccc3c(c2)OCO3)C1c1cccnc1 (stereo not drawn) [Molecule 51, 4-(1,3-benzodioxol-5-ylcarbonyl)-1-[3-(diethylamino)propyl]-3-hydroxy-5-(3-pyridinyl)-1,5-dihydro-2H-pyrrol-2-one] | > 10 | 46 |  | 
2 | O=C(CCCN1C(=O)c2ccccc2C1=O)Nc1sc2c(c1C(=O)NCC1CCCO1)CCC2 (stereo not drawn) [Molecule 30] | > 10 | 51 |  | 
3 | CCN(CC)CCCN1C(=O)C(O)=C(C(=O)c2cc3cccc(OC)c3o2)C1c1ccccn1 (stereo not drawn) [Molecule 86, 1-[3-(diethylamino)propyl]-3-hydroxy-4-[(7-methoxy-1-benzofuran-2-yl)carbonyl]-5-(2-pyridinyl)-1,5-dihydro-2H-pyrrol-2-one] | ~10 (≈ 21.6 µM) | 17 |  | 
4 | CN(C)S(=O)(=O)c1ccc(C(=O)C2=C(O)C(=O)N(CCCN3CCOCC3)C2c2cccnc2)cc1 (stereo not drawn) [Molecule 65, 4-{[4-hydroxy-1-[3-(4-morpholinyl)propyl]-5-oxo-2-(3-pyridinyl)-2,5-dihydro-1H-pyrrol-3-yl]carbonyl}-N,N-dimethylbenzenesulphonamide] | > 10 | 37 |  | 
5 | COc1ccc(C2C(C(=O)c3ccc(Cl)cc3)=C(O)C(=O)N2CCN2CCOCC2)cc1OC (stereo not drawn) [Molecule 27, 4-(4-chlorobenzoyl)-5-(3,4-dimethoxyphenyl)-3-hydroxy-1-[2-(4-morpholinyl)ethyl]-1,5-dihydro-2H-pyrrol-2-one] | > 10 | 55 |  | 
6 | COc1ccccc1C1C(C(=O)c2cc(C)ccc2C)=C(O)C(=O)N1CCN1CCOCC1 (stereo not drawn) [Molecule 7, 4-(2,5-dimethylbenzoyl)-3-hydroxy-5-(2-methoxyphenyl)-1-[2-(4-morpholinyl)ethyl]-1,5-dihydro-2H-pyrrol-2-one] | > 10 | 72 |  | 
7 | COc1ccc(OC)c(C2C(C(=O)c3ccc(F)cc3)=C(O)C(=O)N2CCCN2CCOCC2)c1 (stereo not drawn) [Molecule 43, 5-(2,5-dimethoxyphenyl)-4-(4-fluorobenzoyl)-3-hydroxy-1-[3-(4-morpholinyl)propyl]-1,5-dihydro-2H-pyrrol-2-one] | > 10 | 48.5 |  | 
8 | Cc1ccc(-n2c3c(cc(C(=O)NC4CC(C)(C)NC(C)(C)C4)c2=O)C(=O)CC(C)(C)C3)cc1 [Molecule 22, 7,7-dimethyl-1-(4-methylphenyl)-2,5-dioxo-N-(2,2,6,6-tetramethyl-4-piperidinyl)-1,2,5,6,7,8-hexahydro-3-quinoline carboxamide] | > 10 | 57.5 |  | 
9 | COc1ccc(C2C(C(=O)c3ccc(Cl)cc3)=C(O)C(=O)N2CCN2CCOCC2)cc1 (stereo not drawn) [Molecule 39, 4-(4-chlorobenzoyl)-3-hydroxy-5-(4-methoxyphenyl)-1-[2-(4-morpholinyl)ethyl]-1,5-dihydro-2H-pyrrol-2-one] | > 10 | 50 |  | 
10 | COc1ccc(C2C(C(=O)c3ccc(Cl)cc3)=C(O)C(=O)N2CCN2CCOCC2)cc1OC (stereo not drawn) [Molecule 36, 4-(4-chlorobenzoyl)-5-(3,4-dimethoxyphenyl)-3-hydroxy-1-[2-(4-morpholinyl)ethyl]-1,5-dihydro-2H-pyrrol-2-one] |  |  | >10 | 50

More lines, now with the values ahead:

Row | IC50 (RBL-2H3 cells) [µg/mL] | inhibition at 10 µM [1] [%] | Degran. IC50: concentration inhibiting mast cell degranulation by 50% (RBL-2H3 cells) [µg/mL] | In vit. inhib.: mean inhibition % of the binding of scFv G4G11 with Syk in the ADA method [1] [%] | SMILES
11 | > 10 | 57 |  |  | COc1cccc(C2C(C(=O)c3ccc(F)cc3)=C(O)C(=O)N2CCCN2CCOCC2)c1 (stereo not drawn) [Molecule 24, 4-(4-fluorobenzoyl)-3-hydroxy-5-(3-methoxyphenyl)-1-[3-(4-morpholinyl)propyl]-1,5-dihydro-2H-pyrrol-2-one]
12 | > 10 | 30 |  |  | COc1cccc(C(=O)N(Cc2cc3ccc(C)cc3nc2C)c2ccccc2OC)c1 [Molecule 70]
13 | > 10 | 42 |  |  | N#CC1=C(N)Oc2[nH]nc(-c3ccccc3)c2C1c1cccc(OC(=O)c2ccco2)c1 (stereo not drawn) [Molecule 57, 3-(6-amino-5-cyano-3-phenyl-1,4-dihydropyrano[2,3-c]pyrazol-4-yl)phenyl 2-furoate]
14 | > 10 | 69 |  |  | CCOC(=O)c1[nH]c(N2C(=O)C(O)=C(C(=O)c3ccccc3)C2c2ccc(OC)cc2)nc1C (stereo not drawn) [Molecule 12]
15 | > 10 | 49.5 |  |  | Cc1ccc(C(=O)C(C)OC(=O)c2ccc3c(c2)C(=O)C(c2ccc(C)c(Cl)c2)C3=O)cc1 (stereo not drawn) [Molecule 41]
